Laboratory results: patent publication US20020019527A1 (priority 2000, published 2002)
Counter-ions that a name gives are not always drawn.

biological target: T1, Farnesyltransferase (FTase) (Bos taurus, UniProt P29702+P49355); experiment: Farnesyltransferase inhibition (scintillation proximity assay, [3H]-FPP / biotin-K-ras peptide); type: biochemical, bovine; conditions: not given
T1 construct: precipitation from a beef brain homogenate; from tissue; host or cells: bovine brain
Method in brief: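 Bovine brain FTase, partially purified by 30–50% saturated ammonium sulfate precipitation and DEAE Sepharose chromatography, separated from GGTase I/II. Scintillation proximity read-out of [3H]-FPP transfer to biotin-K-ras peptide, counted 1 h after quench. Compounds added from ethanol with 10-fold dilution into assay.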

T1 sequence (P49355 whole entry, one chain of several): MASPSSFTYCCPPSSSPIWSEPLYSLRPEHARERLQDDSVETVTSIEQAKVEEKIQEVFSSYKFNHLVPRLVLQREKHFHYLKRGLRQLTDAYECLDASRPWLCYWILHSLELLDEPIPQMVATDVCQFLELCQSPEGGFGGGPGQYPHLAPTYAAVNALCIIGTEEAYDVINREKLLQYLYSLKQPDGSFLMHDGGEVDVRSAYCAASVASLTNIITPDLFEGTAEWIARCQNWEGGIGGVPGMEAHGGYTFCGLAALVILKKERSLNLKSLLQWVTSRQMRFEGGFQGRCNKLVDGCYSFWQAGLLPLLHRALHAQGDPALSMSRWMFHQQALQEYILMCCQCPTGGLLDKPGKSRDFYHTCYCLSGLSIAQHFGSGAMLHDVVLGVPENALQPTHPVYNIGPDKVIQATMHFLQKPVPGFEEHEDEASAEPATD

| SMILES | % Inhibition at 10^−6M |
| --- | --- |
| Cc1cccc(COC(c2ccc(C#N)c(-c3ccccc3C)c2)c2cncn2C)c1.Cl (stereo not drawn) [Example 128] | 94% |

same assay, conditions: compound at 10^−6 M; bovine FTase, 37° C., 30 minutes

| SMILES | inhibition at 1 µM | % Inhibition at 10^−6M |
| --- | --- | --- |
| CCN(Cc1ccc([N+](=O)[O-])cc1)C(c1ccc(C#N)c(-c2ccccc2C)c1)c1cncn1C (stereo not drawn) [Example 27, 5-((ethyl(4-nitrobenzyl)amino)(1-methyl-1H-imidazol-5-yl)methyl)-2′-methyl(1,1′-biphenyl)-2-carbonitrile dihydrochloride] | 100% | – |
| COc1ccc([N+](=O)[O-])cc1COC(c1ccc(C#N)c(-c2ccccc2C)c1)c1cncn1C (stereo not drawn) [Example 122, 5-(((2-methoxy-5-nitrobenzyl)oxy)(1-methyl-1H-imidazol-5-yl)methyl)-2′-methyl(1,1′-biphenyl)-2-carbonitrile hydrochloride] | 94% | – |
| Cc1ccccc1-c1cc(C(OCc2ccccc2)c2cncn2C)ccc1C#N (stereo not drawn) [Example 11, 5-((benzyloxy)(1-methyl-1H-imidazol-5-yl)methyl)-2′-methyl(1,1′-biphenyl)-2-carbonitrile hydrochloride] | 94% | – |
| Cn1cncc1C(OCC1CCCCC1)c1ccc(C#N)c(-c2cccc3ccccc23)c1 (stereo not drawn) [Example 14, 4-((cyclohexylmethoxy)(1-methyl-1H-imidazol-5-yl)methyl)-2-(1-naphthyl)benzonitrile hydrochloride] | 100% | – |
| Cc1ccccc1-c1cc(CN(CCC2CCCCC2)Cc2cncn2C)ccc1C#N [Example 82, 5-(((2-cyclohexylethyl)((1-methyl-1H-imidazol-5-yl)methyl)amino)methyl)-2′-methyl(1,1′-biphenyl)-2-carbonitrile hydrochloride] | 87% | – |
| Cc1ccccc1-c1cc(C(NC2CCN(C(=O)c3ccccc3)CC2)c2cncn2C)ccc1C#N (stereo not drawn) [Example 16, 5-(((1-benzoyl-4-piperidinyl)amino)(1-methyl-1H-imidazol-5-yl)methyl)-2′-methyl(1,1′-biphenyl)-2-carbonitrile dihydrochloride] | 100% | – |
| N#Cc1ccc(COC(c2ccc(C#N)c(-c3cccc4ccccc34)c2)c2cn(C(c3ccccc3)(c3ccccc3)c3ccccc3)cn2)cc1 (stereo not drawn) [Example 49, 4-(((4-cyanobenzyl)oxy)(1-trityl-1H-imidazol-4-yl)methyl)-2-(1-naphthyl)benzonitrile] | 62% | – |
| Cc1ccccc1-c1cc(C(OCc2ccc(F)cc2)c2cncn2C)ccc1C#N (stereo not drawn) [Example 118, 5-(((4-fluorobenzyl)oxy)(1-methyl-1H-imidazol-5-yl)methyl)-2′-methyl(1,1′-biphenyl)-2-carbonitrile hydrochloride] | 90% | – |
| Cn1cncc1C(OCc1ccccc1)c1ccc(C#N)c(-c2ccccc2)c1 (stereo not drawn) [Example 87, 5-((benzyloxy)(1-methyl-1H-imidazol-5-yl)methyl)(1,1′-biphenyl)-2-carbonitrile hydrochloride] | 89% | – |
| Cn1cncc1C(NC1CCN(C(=O)OC(C)(C)C)CC1)c1ccc(C#N)c(-c2cccc3ccccc23)c1 (stereo not drawn) [Example 56, tert-butyl 4-(((4-cyano-3-(1-naphthyl)phenyl)(1-methyl-1H-imidazol-5-yl)methyl)amino)-1-piperidinecarboxylate] | 100% | – |
| Cc1ccccc1-c1cc(C(OCc2ccc(I)cc2)c2cncn2C)ccc1C#N (stereo not drawn) [Example 160, 5-(((4-iodobenzyl)oxy)(1-methyl-1H-imidazol-5-yl)methyl)-2′-methyl(1,1′-biphenyl)-2-carbonitrile hydrochloride] | 96% | – |
| Cn1cncc1CN(Cc1ccc(Cl)cc1)Cc1ccc(C#N)c(-c2cccc3ccccc23)c1 [Example 40, 4-(((4-chlorobenzyl)((1-methyl-1H-imidazol-5-yl)methyl)amino)methyl)-2-(1-naphthyl)benzonitrile dihydrochloride] | 100% | – |
| COc1ccccc1-c1nc(COC(c2ccc(C#N)c(-c3ccccc3C)c2)c2cncn2C)no1 (stereo not drawn) [Example 163, 5-(((5-(2-methoxyphenyl)-1,2,4-oxadiazol-3-yl)methoxy)(1-methyl-1H-imidazol-5-yl)methyl)-2′-methyl(1,1-biphenyl)-2-carbonitrile hydrochloride] | 84% | – |
| Cc1ccccc1-c1cc(C(OCc2ccc(C(C)C)cc2)c2cncn2C)ccc1C#N (stereo not drawn) [Example 153, 5-(((4-isopropylbenzyl)oxy)(1-methyl-1H-imidazol-5-yl)methyl)-2′-methyl(1,1′-biphenyl)-2-carbonitrile hydrochloride] | 92% | – |
| CCCCN(Cc1ccc(C#N)cc1)C(c1ccc(C#N)c(-c2cccc3ccccc23)c1)c1cncn1C (stereo not drawn) [Example 30, 4-((butyl(4-cyanobenzyl)amino)(1-methyl-1H-imidazol-5-yl)methyl)-2-(1-naphthyl)benzonitrile dihydrochloride] | 100% | – |

Further lines, results first:

| inhibition at 1 µM | % Inhibition at 10^−6M | SMILES |
| --- | --- | --- |
| 90% | – | Cc1ccccc1-c1cc(C(OCc2ccc(C(=O)N(C)C)cc2)c2cncn2C)ccc1C#N (stereo not drawn) [Example 190, 4-(((6-cyano-2′-methyl(1,1′-biphenyl)-3-yl)(1-methyl-1H-imidazol-5-yl)methoxy)methyl)-N,N-dimethylbenzamide] |
| 48% | – | Cc1ccccc1-c1cc(C(Cn2ccnc2)OCc2ccccc2)ccc1C#N (stereo not drawn) [Example 210, 5-(1-(benzyloxy)-2-(1H-imidazol-1-yl)ethyl)-2′-methyl(1,1′-biphenyl)-2-carbonitrile hydrochloride] |
| 100% | – | Cn1cncc1CN(Cc1cccc(C#N)c1)c1ccc(C#N)c(-c2cccc3ccccc23)c1 [Example 266, 4-((3-cyanobenzyl)((1-methyl-1H-imidazol-5-yl)methyl)amino)-2-(1-naphthyl)benzonitrile] |
| 98% | – | Cn1cncc1C(OCc1ccc(C#N)cn1)c1ccc(C#N)c(-c2cccc(Cl)c2Cl)c1 (stereo not drawn) [Example 280, 6-(((2′,3′-dichloro-6-cyano(1,1′-biphenyl)-3-yl)(1-methyl-1H-imidazol-5-yl)methoxy)methyl)nicotinonitrile dihydrochloride] |
| 100% | – | Cn1cncc1CNc1ccc(C#N)c(-c2cccc3ccccc23)c1 [Example 234, 4-(((1-methyl-1H-imidazol-5-yl)methyl)amino)-2-(1-naphthyl)benzonitrile] |
| 85% | – | COc1ccc(-c2nc(COC(c3ccc(C#N)c(-c4ccccc4C)c3)c3cncn3C)no2)cc1 (stereo not drawn) [Example 172, 5-(((5-(4-methoxyphenyl)-1,2,4-oxadiazol-3-yl)methoxy)(1-methyl-1H-imidazol-5-yl)methyl)-2′-methyl(1,1′-biphenyl)-2-carbonitrile hydrochloride] |
| 100% | – | Cc1ccccc1-c1cc(N(Cc2ccccc2)Cc2cncn2C)ccc1C#N [Example 226, 5-(benzyl((1-methyl-1H-imidazol-5-yl)methyl)amino)-2′-methyl(1,1-biphenyl)-2-carbonitrile] |
| 94% | – | Cn1cncc1C(OCc1ccc(C#N)c(-c2cccc3ccccc23)c1)c1ccccc1 (stereo not drawn) [Example 256, 4-(((1-methyl-1H-imidazol-5-yl)(phenyl)methoxy)methyl)-2-(1-naphthyl)benzonitrile hydrochloride] |
| 30% | – | Cc1ccccc1-c1cc(C(O)c2cccnc2)ccc1C#N (stereo not drawn) [Example 211, 5-(hydroxy(3-pyridinyl)methyl)-2′-methyl(1,1′-biphenyl)-2-carbonitrile] |
| – | 99% | Cn1cncc1CN(Cc1ccc(C#N)cc1)C(=O)c1ccc(C#N)c(-c2cccc3ccccc23)c1 [Example 191, 4-cyano-N-(4-cyanobenzyl)-N-((1-methy-1H-imidazol-5-yl)methyl)-3-(1-naphthyl)benzamide] |
| 97% | – | CC(=O)Nc1ccc(CN(Cc2ccc(C#N)c(-c3cccc4ccccc34)c2)Cc2cncn2C)cc1 [Example 194, N-(4-(((4-cyano-3-(1-naphthyl)benzyl)((1-methyl-1H-imidazol-5-yl)methyl)amino)methyl)phenyl)acetamide dihydrochloride] |
| 95% | – | Cc1ccccc1-c1cc(C(OCc2cccc(Br)c2)c2cncn2C)ccc1C#N (stereo not drawn) [Example 184, 5-(((3-bromobenzyl)oxy)(1-methyl-1H-imidazol-5-yl)methyl)-2′-methyl(1,1′-biphenyl)-2-carbonitrile hydrochloride] |
| 98% | – | Cn1cncc1C(OCc1ccc(C(F)(F)F)c(F)c1)c1ccc(C#N)c(-c2ccccc2C(F)(F)F)c1 (stereo not drawn) [Example 249, 5-(((3-fluoro-4-(trifluoromethyl)benzyl)oxy)(1-methyl-1H-imidazol-5-yl)methyl)-2′-(trifluoromethyl)(1,1′-biphenyl)-2-carbonitrile hydrochloride] |
| 98% | – | Cn1cncc1C(OCc1ccc(Cl)c(Cl)c1)c1ccc(C#N)c(-c2ccccc2C(F)(F)F)c1 (stereo not drawn) [Example 248, 5-(((3,4-dichlorobenzyl)oxy)(1-methyl-1H-imidazol-5-yl)methyl)-2′-(trifluoromethyl)(1,1′-biphenyl)-2-carbonitrile hydrochloride] |
| 99% | – | Cn1cncc1C(OCc1ccc(C#N)cc1)c1ccc(C#N)c(-c2ccccc2C(F)(F)F)c1 (stereo not drawn) [Example 201, 5-(((4-cyanobenzyl)oxy)(1-methyl-1H-imidazol-5-yl)methyl)-2′-(trifluoromethyl)(1,1′-biphenyl)-2-carbonitrile hydrochloride] |
| 100% | – | Cn1cncc1C(OCc1cccc(C#N)c1)c1ccc(C#N)c(-c2cccc3ccccc23)c1 (stereo not drawn) [Example 262, 4-(((3-cyanobenzyl)oxy)(1-methyl-1H-imidazol-5-yl)methyl)-2-(1-naphthyl)benzonitrile] |
| 100% | – | Cn1cncc1C(OCc1ccc(N=[N+]=[N-])cc1)c1ccc(C#N)c(-c2cccc3ccccc23)c1 (stereo not drawn) [Example 276, 4-((1-methyl-1H-imidazol-5-yl)((4-azidobenzyl)oxy)methyl)-2-(1-naphthyl)benzonitrile hydrochloride] |
